# Assay results taken from the supplement of paper PMC10307832.
# Tests used:
# Experiment in all cases: relative viability (nuclei count vs DMSO), 5 days (fraction); higher = more cells survive
# [1] = compound: C(C(=O)C(=O)O)Br [Bromopyruvate] + Cc1cc(Nc2cc(N3CCN(C)CC3)nc(Sc3ccc(NC(=O)C4CC4)cc3)n2)n[nH]1 [Tozasertib] (partner 0.1 µM)
# Summary of the method: (§1)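 Lung cancer cell lines were pin-tool dosed in 1536-well plates on the day after seeding, with either a lone drug or a fixed anchor-drug dose plus five library-drug doses (not always all listed) in √10 steps. Nuclei were counted on 4× images after 5 days. Relative viability is the ratio of treated-well to vehicle-well nuclei counts, with each value a median of duplicate plates.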
# [2] = compound: CC(O)(CS(=O)(=O)c1ccc(F)cc1)C(=O)Nc1ccc(C#N)c(C(F)(F)F)c1 [Bicalutamide] + CC(C)C[C@H](NC(=O)[C@H](Cc1ccccc1)NC(=O)c1cnccn1)B(O)O [Bortezomib] (partner 0.002 µM)
# Summary of the method: as §1
# [3] = compound: CC(O)(CS(=O)(=O)c1ccc(F)cc1)C(=O)Nc1ccc(C#N)c(C(F)(F)F)c1 [Bicalutamide] + COc1cc2c(Oc3ccc(NC(=O)C4(C(=O)Nc5ccc(F)cc5)CC4)cc3F)ccnc2cc1OCCCN1CCOCC1 [Foretinib] (partner 0.25 µM)
# Summary of the method: as §1
# [4] = compound: CC(O)(CS(=O)(=O)c1ccc(F)cc1)C(=O)Nc1ccc(C#N)c(C(F)(F)F)c1 [Bicalutamide] + C[C@]1(O)C[C@@H](c2nc(-c3ccc4ccc(-c5ccccc5)nc4c3)c3c(N)nccn32)C1 [Linsitinib] (partner 1 µM)
# Summary of the method: as §1
Cell Line,relative viability ([1]; first compound 1 µM),relative viability ([1]; first compound 3.162 µM),relative viability ([1]; first compound 10 µM),relative viability ([1]; first compound 31.62 µM),relative viability ([1]; first compound 100 µM),relative viability ([2]; first compound 0.08 µM),relative viability ([2]; first compound 0.253 µM),relative viability ([2]; first compound 0.8 µM),relative viability ([2]; first compound 2.53 µM),relative viability ([3]; first compound 0.08 µM),relative viability ([3]; first compound 0.253 µM),relative viability ([3]; first compound 0.8 µM),relative viability ([3]; first compound 2.53 µM),relative viability ([4]; first compound 0.08 µM),relative viability ([4]; first compound 0.253 µM),relative viability ([4]; first compound 0.8 µM),relative viability ([4]; first compound 2.53 µM)
NCI-H23,0.347,0.388,0.361,0.291,0.105,0.964,1.03,1.49,0.786,0.905,0.876,1.01,0.965,0.584,0.526,0.498,0.454
NCI-H322M,0.433,0.546,0.495,0.461,0.484,1.13,1.32,1.4,1.35,1.01,0.851,1.16,1.06,0.94,0.976,1.02,1.04
NCI-H441,0.597,0.614,0.605,0.615,0.565,0.566,–,0.531,0.398,1.19,0.894,0.964,0.787,0.6,–,0.863,0.404
NCI-H460,0.432,0.485,0.426,0.424,0.335,1.15,1.09,1.35,1.12,1,1,1.17,0.963,0.854,0.556,0.986,0.672
NCI-H520,0.467,0.448,0.395,0.422,0.328,0.576,0.391,0.96,0.432,0.856,0.708,0.773,0.621,0.941,0.875,1.12,0.815
NCI-H596,0.83,0.943,1.1,0.878,0.412,1.19,1.11,1.01,1.04,0.986,0.87,0.976,0.946,1.09,0.968,1.25,1.14
NCI-H647,0.289,0.221,0.29,0.298,0.389,0.973,0.96,1.4,0.903,1.08,1.16,1.23,1.14,1.2,1.17,1.48,0.955
NCI-H650,0.656,0.756,0.804,0.714,0.698,0.907,0.87,0.918,0.553,1.07,1.07,1.17,0.936,0.906,1.07,1.1,0.489
NCI-H661,0.35,0.361,0.335,0.348,0.362,0.84,0.931,0.81,0.849,1.02,1.04,1.04,0.958,0.538,0.63,0.612,0.61
NCI-H727,0.593,0.745,0.644,0.591,0.535,0.884,0.709,0.968,0.626,1,0.689,1.23,0.914,0.234,0.356,0.295,0.269
NCI-H838,0.268,0.291,0.305,0.242,0.293,0.715,0.626,1.28,0.624,0.994,0.963,1.08,0.928,0.962,1,1,0.827
NCI-H1355,0.529,0.577,0.516,0.548,0.574,1.21,1.07,1.43,1.1,1.03,0.963,1.1,1.03,0.781,0.782,0.957,0.805
NCI-H1437,0.384,0.414,0.447,0.397,0.451,0.493,0.372,0.759,0.455,1.28,1.29,1.24,1.27,1.01,1,1.28,0.965
NCI-H1651,0.634,0.718,0.665,0.701,0.652,0.917,0.864,1.04,0.959,0.89,0.734,1.01,0.884,0.966,0.903,1.1,0.913
NCI-H1666,0.644,0.722,0.543,0.603,0.51,0.808,0.802,1,0.949,0.927,0.975,0.913,0.977,0.814,0.8,0.932,0.955
NCI-H1734,0.243,0.247,0.307,0.244,0.216,1.01,0.843,1.12,0.915,0.925,0.731,1,0.809,0.87,0.76,0.947,0.863
NCI-H1755,0.59,0.568,0.495,0.702,0.693,0.97,0.892,0.938,0.895,0.895,0.883,0.96,0.853,0.99,0.988,1.02,0.958
NCI-H1915,0.438,0.455,0.445,0.444,0.392,0.962,0.944,1.11,0.909,0.753,1.06,1.11,1.13,1.11,1.13,1.1,1.03

Cell Line,relative viability ([1]; first compound 1 µM),relative viability ([1]; first compound 3.162 µM),relative viability ([1]; first compound 10 µM),relative viability ([1]; first compound 31.62 µM),relative viability ([1]; first compound 100 µM),relative viability ([2]; first compound 0.08 µM),relative viability ([2]; first compound 0.253 µM),relative viability ([2]; first compound 0.8 µM),relative viability ([2]; first compound 2.53 µM),relative viability ([3]; first compound 0.08 µM),relative viability ([3]; first compound 0.253 µM),relative viability ([3]; first compound 0.8 µM),relative viability ([3]; first compound 2.53 µM),relative viability ([4]; first compound 0.08 µM),relative viability ([4]; first compound 0.253 µM),relative viability ([4]; first compound 0.8 µM),relative viability ([4]; first compound 2.53 µM)
NCI-H1975,0.733,0.811,0.806,0.729,0.646,0.314,0.296,0.417,0.372,1.07,0.824,0.971,0.827,0.947,0.917,1.1,0.656
NCI-H1993,0.626,0.629,0.697,0.578,0.598,–,0.897,1.31,1.12,0.738,0.7,0.866,0.971,–,0.77,0.707,0.738
NCI-H2009,0.743,0.78,0.767,0.723,0.444,1.26,1.03,1.16,0.88,1.35,1.23,1.19,1.17,1.19,1.12,1.16,1.16
NCI-H2023,0.31,0.4,0.348,0.482,0.39,1.09,0.932,1.11,0.8,0.957,0.506,0.845,0.774,0.721,0.723,0.597,0.715
NCI-H2085,0.821,0.917,0.84,0.558,0.311,1.14,0.944,1.08,0.996,1.02,1.1,0.878,0.753,0.856,1.04,0.938,0.794
NCI-H2087,0.237,0.284,0.234,0.269,0.258,0.785,0.825,1.04,0.75,1.14,1.17,1.15,0.993,1.03,1.07,0.95,0.77
NCI-H2126,0.881,0.858,0.825,0.879,0.783,1.12,1.09,1.08,1.06,1.21,1.19,1.36,1.18,0.737,0.724,0.731,0.68
NCI-H2228,0.241,0.252,0.239,0.284,0.248,1.07,1.11,1.31,1.11,0.933,0.843,1,1.02,0.627,0.573,0.824,0.957
NCI-H2347,0.69,0.534,0.715,0.479,0.609,1.21,0.989,1.4,0.903,1.26,1.35,1.34,1.04,1.1,0.944,1.02,0.934
NCI-H2405,0.806,0.779,0.723,0.804,0.785,1.02,1.01,1.05,0.986,1.04,1.03,1.11,1.01,0.897,0.873,1.06,0.901
NCI-H3122,0.381,0.378,0.468,0.417,0.382,1.03,1.03,0.988,1.03,1.02,0.9,0.996,1.01,1.01,1.04,1.04,1.07
PC-3 [JPC-3],0.906,0.868,0.937,0.841,0.892,0.808,0.909,0.908,0.818,1.01,1.02,1.07,1.11,0.927,1.02,0.986,1.02
PC-14,0.598,0.566,0.633,0.633,0.628,0.923,0.974,0.827,0.89,0.951,0.905,1.03,0.965,0.968,0.967,0.976,1.04
RERF-LC-KJ,0.508,0.491,0.433,0.517,0.413,1.24,0.951,1.23,1.07,0.814,0.927,1.04,0.889,0.868,0.85,0.94,0.904
SK-LU-1,0.328,0.349,0.333,0.382,0.266,1.33,1.37,1.89,1.09,0.99,0.785,1.01,0.78,1.24,1.29,1.17,0.817
SW 1573,0.191,0.184,0.159,0.171,0.0582,1.05,0.842,1.25,0.912,0.929,0.71,1.08,0.778,0.834,0.647,0.887,0.647
UMC-11,0.201,0.196,0.188,0.208,0.213,0.758,0.67,0.762,0.596,1.11,0.966,1.08,1.05,1.1,0.662,1.08,0.955
